Assay [1] deals with T1, IGF-1R (Homo sapiens, UniProt P08069).
T1 construct: expressed in transfected cells; host or cells: CHO-K1 (ATCC) stably transfected with pcDNA3-IGF-1R vector (gift of R. O'Connor); polyclonal CHO-R+ population
As to the kind of experiment: Association, dissociation and accelerated dissociation kinetics of 125I-labeled ligands on IGF-1R in CHO-R+ cells. Type of assay: binding. Particulars: for (d1) dissociation rate at maximum acceleration ± S.D., IGF-1R / dissociation rate (measured) ± S.D., IGF-1R: 15°C; for (d1) dissociation rate at maximum acceleration ± S.D., IGF-1R: dissociation of 125I-labeled ligand in the presence of 170 nM cold ligand (17 μM for insulin), monoexponential decay fit; for dissociation rate (measured) ± S.D., IGF-1R: dissociation of 125I-labeled ligand without cold ligand; for Shape of dose-response curve for accelerated dissociation, IGF-1R: 125I-labeled ligand preincubated […] at 15°C, cold ligand 0.001 nM-10 µM for 30 min at 15°C. The method, then:
(§1) For details, see supporting information.
(§2) HEPES binding buffer. The use of bovine serum albumin in the binding buffer (e.g. Sigma-Aldrich […]
(§3) Following the incubation, the cells were washed twice with ice-cold binding buffer and solubilized with 0.1 M NaOH. Cell-associated radioactivity was counted using the Gamma Counter Wizard 1470 (Perkin […]
(§4) Each binding curve was determined
(§5) For dose-response curves for accelerated dissociation the cells (3 x 10^7/mL) in HEPES binding buffer were preincubated with the radio-labeled ligand (about 2500 Ci/mmol, 150,000 cpm/mL, about 0.03 nM) for 2.5 hours at 15°C. After the preincubation, the suspension was centrifuged at 1000 x g, 4°C for 5 min and the supernatant containing the unbound radioactivity was discarded. The pellet was resuspended in the initial volume of buffer.

For assay [2], the target named is T2, IR-A (Homo sapiens, UniProt P06213).
T2 construct: host or cells: human IM-9 lymphocytes
The assay is described as follows: Whole-cell receptor-binding assay, IR-A in IM-9 lymphocytes. As to conditions: as E1; measurement series ≈; read-out: IR-A Kd ± S.D. (n). From the text: (§6) Human IM-9 lymphocytes (containing IR-A) and IGF-1R null mouse embryonic fibroblasts, stably transfected with either human IR-B or human IGF-1R, were employed for a whole-cell receptor-binding assay as described previously ([32], [33], [42]). For details, see supporting information.
(§7) ULTIMATE 3000 RSLCnano (Dionex, Thermo Scientific) coupled to TripleTOFTM 5600 (SCIEX).
The extent of iodination in a specific position in the three fractions containing iodinated Tyr residues
was approximated by comparing the area of peaks corresponding to peptides containing TyrB16,
(§8) TyrB26 and TyrB32 and their iodinated counterparts.
Human IM-9 lymphocytes (containing IR-A) and IGF-1R null mouse embryonic fibroblasts,
stably transfected with either human IR-B or human IGF-1R, were employed for whole cell receptor-
binding assay as described previously (3-5).
binding buffer (100 mM HEPES, 100 mM NaCl, 5 mM KCl, 1.3 mM MgSO4, 1 mM EDTA, 10 mM
glucose, 15 mM NaOAc, 1 % w/v BSA, pH 7.6). After incubation 2 x 200 µL were centrifuged at
(§9) 15,000 x g for 10 min in microfuge tubes containing 200 µL of pre-cooled HEPES binding buffer.
Radioactive pellets were counted using the Gamma Counter Wizard 1470 (Perkin Elmer). Binding data
(§10) were analyzed by Excel software using a method of non-linear regression and a one-site fitting program […]
(§11) calculated using the two-tailed t test. […]

In assay [3] the target is T1, IGF-1R. The assay is described as follows: Whole-cell receptor-binding assay, IGF-1R in transfected mouse embryonic fibroblasts.
Description: as §6, §7
The extent of iodination in a specific position in the three fractions containing iodinated Tyr residues […]
was approximated by comparing the area of peaks corresponding to peptides containing TyrB16, […]
as §8
Human IM-9 lymphocytes (containing IR-A) and IGF-1R null mouse embryonic fibroblasts, […]
stably transfected with either human IR-B or human IGF-1R, were employed for whole cell receptor- […]
binding assay as described previously (3-5). […]
binding buffer (100 mM HEPES, 100 mM NaCl, 5 mM KCl, 1.3 mM MgSO4, 1 mM EDTA, 10 mM […]
glucose, 15 mM NaOAc, 1 % w/v BSA, pH 7.6). After incubation 2 x 200 µL were centrifuged at […]
as §9
Radioactive pellets were counted using the Gamma Counter Wizard 1470 (Perkin Elmer). Binding data […]
as §10
developed in the laboratory of Dr. Pierre De Meyts (A.V. Groth and R.M. Shymko, Hagedorn Research […]
Institute, Denmark, a kind gift of Pierre De Meyts). […]
set up to 0.3 nM. Receptor binding assays were performed under conditions excluding the depletion of […]
as §11
Following the incubation, the cells were washed twice with ice-cold binding buffer and solubilized with 0.1 M NaOH. Cell-associated radioactivity was counted using the Gamma Counter Wizard 1470 (Perkin Elmer). Binding data were analyzed by and the dissociation constant (Kd) was determined with GraphPad Prism 5 using a non-linear regression, a one-site fitting program and taking into account potential depletion of free ligand.
Each binding curve was determined […]

Assay [4] deals with T1, IGF-1R. As to the kind of experiment: Receptor phosphorylation assay (immunoblotting), IGF-1R-transfected mouse fibroblasts (R+39). The assay is classed as cell-based. Particulars: 10 nM ligand, 10 min, n ≥ 4. The text has this:
For details, see supporting information. […] Each experiment was repeated four times.
A general note: Immunoblotting shows a protein as a band on a membrane.

In assay [5] the target is T1, IGF-1R. The assay is described as follows: Ligand-dose response IGF-1R autophosphorylation, In-Cell Western assay. The assay is classed as cell-based. As to conditions: 0.1-100 nM ligand, 20 min, relative to 10 nM IGF-1.
Description: Ligand–dose response IGF-1R autophosphorylation levels for selected analogs were determined, using the In-Cell Western assay adapted for chemiluminescence as described ([34]). […] Experiments were repeated at least four times. Log(agonist) versus response curve fitting of data was carried out with GraphPad Prism 5.
Mean ± S.D. (n ≥ 4) values were calculated.
one-way analysis of variance (ANOVA) with Dunnett’s test comparing all analogs versus control i.e.
Ligand-dose response IGF-1R autophosphorylation levels for selected analogs were determined, using In-Cell Western assay adapted for chemiluminiscence as described in (6). The IGF-1R cells were plated at 20,000 cells/well in white 96-well Brand plates cell grade (Brand GMBH, Germany) and incubated for 24 hours. Cells were afterwards starved for 4 hours in serum-free media and stimulated with dilutions of ligands (0-100 nM) for 20 min. After the incubation, the medium was discarded and the cells were fixed in 3.75 % v/v freshly prepared formaldehyde for 20 min. […]
Then plates were thoroughly washed with TBS and incubated with peroxidase-labeled anti-rabbit secondary antibody (Sigma) for 1 hour at room temperature, and washed again. SuperSignal West Femto maximum sensitivity substrate was added to each well and chemiluminiscence was detected using the ChemiDoc MP Imaging System after 5 min. […]
Assay [6] concerns the target T2, IR-A. As to the kind of experiment: Association, dissociation and accelerated dissociation kinetics of 125I-labeled ligands on IR-A in IM-9 cells. The assay is classed as binding. The method, then:
as §1, §2, §3, §4, §5

Entries after “also recorded” stand apart in the source; their conditions may differ. Where two headings read alike, the source gives them in different places.

T2 sequence (P06213 28-1370 isoform P06213-2 limits assumed): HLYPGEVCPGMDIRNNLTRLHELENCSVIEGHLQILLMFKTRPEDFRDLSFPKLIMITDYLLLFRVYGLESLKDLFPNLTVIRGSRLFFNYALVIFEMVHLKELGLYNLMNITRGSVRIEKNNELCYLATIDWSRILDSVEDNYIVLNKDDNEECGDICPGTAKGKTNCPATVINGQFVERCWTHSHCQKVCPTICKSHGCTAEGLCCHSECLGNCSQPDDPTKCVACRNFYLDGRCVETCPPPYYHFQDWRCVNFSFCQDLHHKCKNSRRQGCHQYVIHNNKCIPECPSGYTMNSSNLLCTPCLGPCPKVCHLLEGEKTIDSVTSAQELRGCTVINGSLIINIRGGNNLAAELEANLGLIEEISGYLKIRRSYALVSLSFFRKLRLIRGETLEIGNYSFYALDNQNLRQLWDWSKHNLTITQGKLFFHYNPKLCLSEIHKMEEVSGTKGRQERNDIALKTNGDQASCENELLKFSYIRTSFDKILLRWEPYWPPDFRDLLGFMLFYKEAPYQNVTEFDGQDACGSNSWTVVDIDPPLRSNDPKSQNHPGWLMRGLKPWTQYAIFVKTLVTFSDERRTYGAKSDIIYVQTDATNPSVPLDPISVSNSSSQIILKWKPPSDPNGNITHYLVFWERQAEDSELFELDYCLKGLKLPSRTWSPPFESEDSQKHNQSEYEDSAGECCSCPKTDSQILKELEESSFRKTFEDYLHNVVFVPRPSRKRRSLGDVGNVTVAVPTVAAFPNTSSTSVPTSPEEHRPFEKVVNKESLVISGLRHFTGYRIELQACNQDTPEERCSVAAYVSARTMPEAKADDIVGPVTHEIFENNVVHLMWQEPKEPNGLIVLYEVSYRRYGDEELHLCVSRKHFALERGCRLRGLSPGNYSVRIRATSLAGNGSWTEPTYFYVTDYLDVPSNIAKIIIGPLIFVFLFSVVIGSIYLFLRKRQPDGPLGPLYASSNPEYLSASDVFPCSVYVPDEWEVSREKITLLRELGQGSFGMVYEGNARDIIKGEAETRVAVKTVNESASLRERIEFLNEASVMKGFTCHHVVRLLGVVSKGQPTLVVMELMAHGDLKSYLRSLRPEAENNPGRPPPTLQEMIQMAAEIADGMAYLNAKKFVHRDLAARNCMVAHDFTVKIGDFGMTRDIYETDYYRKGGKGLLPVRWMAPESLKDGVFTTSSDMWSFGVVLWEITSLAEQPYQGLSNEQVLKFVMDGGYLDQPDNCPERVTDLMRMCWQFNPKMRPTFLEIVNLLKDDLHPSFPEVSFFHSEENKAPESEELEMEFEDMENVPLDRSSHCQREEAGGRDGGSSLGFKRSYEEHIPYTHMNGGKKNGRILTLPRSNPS
T2 sequence (P06213 763-1382 partner limits assumed): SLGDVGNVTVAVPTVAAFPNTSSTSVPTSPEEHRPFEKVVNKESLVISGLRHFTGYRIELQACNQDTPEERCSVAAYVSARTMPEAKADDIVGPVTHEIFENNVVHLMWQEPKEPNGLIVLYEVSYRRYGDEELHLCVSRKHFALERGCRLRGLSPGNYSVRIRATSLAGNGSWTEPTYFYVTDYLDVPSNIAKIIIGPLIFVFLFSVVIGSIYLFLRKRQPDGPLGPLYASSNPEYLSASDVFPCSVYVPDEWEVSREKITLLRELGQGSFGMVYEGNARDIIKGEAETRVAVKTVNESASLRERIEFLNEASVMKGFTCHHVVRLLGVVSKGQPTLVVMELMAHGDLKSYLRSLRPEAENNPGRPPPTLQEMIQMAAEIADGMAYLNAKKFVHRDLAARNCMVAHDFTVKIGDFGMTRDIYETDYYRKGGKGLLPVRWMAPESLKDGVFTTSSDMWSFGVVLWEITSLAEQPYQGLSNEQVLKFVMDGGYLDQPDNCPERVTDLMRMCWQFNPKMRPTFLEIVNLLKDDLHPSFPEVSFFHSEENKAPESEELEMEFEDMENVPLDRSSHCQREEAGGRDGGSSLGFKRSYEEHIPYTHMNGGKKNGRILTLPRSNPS

In the case of insulin [reference compound], in assay [1], the “(d1) dissociation rate at maximum acceleration ± S.D., IGF-1R” value was found to be 0.0069 ± 0.0004 min⁻¹; the “dissociation rate (measured) ± S.D., IGF-1R” value is 0.0026 ± 0.0010 min⁻¹; the “Shape of dose-response curve for accelerated dissociation, IGF-1R” value is “sigmoid”.

The term Kd denotes the concentration at which binding is half-saturated. With “IGF-2: insulin-like growth factor 2, protein hormone closely related to insulin”, the Kd in assay [2] worked out at 2.92 ± 0.24 nM; in assay [3] (IGF-1R null mouse embryonic fibroblasts transfected with human IGF-1R, competition with mono-125I-IGF-1 (about 0.01 nM), 16 h at 5°C, HEPES binding buffer, mean ± S.D. of n≥3 binding curves, measurement series #), 2.32 ± 1.24 nM.

Take [D-His^B24, Gly^B31, Tyr^B32]-insulin: the “Ability to stimulate IGF-1R phosphorylation” value in assay [4] is given as “increased stimulation of the receptor; also recorded: to an extent approximating IGF-2”. Further, the “Dose-response of IGF-1R stimulation” value in assay [5] is “equipotent to IGF-2”. The “(d1) dissociation rate at maximum acceleration ± S.D., IR-A” value in assay [6] (15°C, dissociation of 125I-labeled ligand in the presence of 170 nM cold ligand, monoexponential decay fit) is 0.0432 ± 0.0032 min⁻¹. In assay [6] (15°C, dissociation of 125I-labeled ligand without cold ligand), the “dissociation rate (measured) ± S.D., IR-A” value turned out to be 0.0017 ± 0.0002 min⁻¹. In addition, the “Shape of dose-response curve for accelerated dissociation, IR-A” value in assay [6] (125I-labeled ligand preincubated […] at 15°C, cold ligand 0.001 nM-10 µM for 30 min at 15°C) is on record as “bell-shaped”. In addition, in assay [1], the “(d1) dissociation rate at maximum acceleration ± S.D., IGF-1R” value stood at 0.0203 ± 0.0038 min⁻¹; the “dissociation rate (measured) ± S.D., IGF-1R” value was 0.0064 ± 0.0035 min⁻¹; the “Shape of dose-response curve for accelerated dissociation, IGF-1R” value is recorded as “sigmoid”. Also, in assay [3] (as E12, measurement series $, read-out: IGF-1R Kd ± S.D. (n)), the Kd amounted to 0.89 ± 0.2 nM. Moreover, the “Increase of binding to IGF-1R compared with insulin” value in assay [3] (from Table 1 binding affinities) is reported as “about 150 fold”.
